How the values were obtained:
[1] = target: T1, Serine/threonine-protein kinase Chk1 (Homo sapiens) (UniProt O14757); test: Inhibition of CHK1 (unknown origin) at 50 nM by Z'LYTE screening method relative to control
T1 sequence (whole entry): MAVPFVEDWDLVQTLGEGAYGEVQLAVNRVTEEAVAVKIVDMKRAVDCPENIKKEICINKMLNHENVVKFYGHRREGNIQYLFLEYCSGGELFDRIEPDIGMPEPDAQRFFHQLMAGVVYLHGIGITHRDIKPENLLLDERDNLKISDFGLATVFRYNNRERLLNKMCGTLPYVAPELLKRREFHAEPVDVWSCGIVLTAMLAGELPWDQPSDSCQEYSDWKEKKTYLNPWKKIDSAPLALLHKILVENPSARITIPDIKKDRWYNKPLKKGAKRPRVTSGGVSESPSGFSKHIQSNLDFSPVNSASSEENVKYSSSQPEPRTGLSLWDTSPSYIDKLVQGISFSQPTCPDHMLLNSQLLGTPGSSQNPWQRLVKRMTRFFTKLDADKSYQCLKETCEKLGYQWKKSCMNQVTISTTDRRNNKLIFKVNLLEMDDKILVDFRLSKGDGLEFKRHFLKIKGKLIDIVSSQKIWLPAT

[2] = target: T2, Inhibitor of nuclear factor kappa-B kinase subunit beta (Homo sapiens) (UniProt O14920); test: Inhibition of IKKbeta (unknown origin) at 50 nM by Z'LYTE screening method relative to control
T2 sequence (whole entry): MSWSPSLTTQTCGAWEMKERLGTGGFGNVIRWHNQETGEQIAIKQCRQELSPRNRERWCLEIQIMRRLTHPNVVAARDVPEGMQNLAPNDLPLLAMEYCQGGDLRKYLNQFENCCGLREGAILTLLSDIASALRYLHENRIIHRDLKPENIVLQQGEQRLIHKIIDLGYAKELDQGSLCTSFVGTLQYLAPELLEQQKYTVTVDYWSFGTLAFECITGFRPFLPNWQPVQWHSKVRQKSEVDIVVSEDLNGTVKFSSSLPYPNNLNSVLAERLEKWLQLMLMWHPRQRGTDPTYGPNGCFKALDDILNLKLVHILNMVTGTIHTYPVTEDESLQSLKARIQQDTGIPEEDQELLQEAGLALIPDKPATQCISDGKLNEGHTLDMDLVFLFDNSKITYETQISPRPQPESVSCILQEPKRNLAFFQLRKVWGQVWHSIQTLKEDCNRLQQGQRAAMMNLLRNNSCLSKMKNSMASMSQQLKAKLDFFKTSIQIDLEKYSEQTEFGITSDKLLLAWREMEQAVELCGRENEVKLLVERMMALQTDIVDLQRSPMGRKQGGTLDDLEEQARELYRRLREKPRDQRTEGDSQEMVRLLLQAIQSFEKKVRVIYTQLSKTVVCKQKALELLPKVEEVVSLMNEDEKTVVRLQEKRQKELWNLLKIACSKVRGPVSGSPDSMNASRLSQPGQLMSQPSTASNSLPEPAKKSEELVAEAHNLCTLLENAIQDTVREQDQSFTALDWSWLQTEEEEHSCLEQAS

[3] = target: Cyclin-dependent kinase 5/CDK5 activator 1 (Homo sapiens) (UniProt Q00535+Q15078); test: Inhibition of CDK5/p25 (unknown origin) at 50 nM by Z'LYTE screening method relative to control; format: protein-complex assay
[4] = target: T3, Serine/threonine-protein kinase TBK1 (Homo sapiens) (UniProt Q9UHD2); test: Inhibition of TBK1 (unknown origin) at 50 nM by Z'LYTE screening method relative to control
T3 sequence (whole entry): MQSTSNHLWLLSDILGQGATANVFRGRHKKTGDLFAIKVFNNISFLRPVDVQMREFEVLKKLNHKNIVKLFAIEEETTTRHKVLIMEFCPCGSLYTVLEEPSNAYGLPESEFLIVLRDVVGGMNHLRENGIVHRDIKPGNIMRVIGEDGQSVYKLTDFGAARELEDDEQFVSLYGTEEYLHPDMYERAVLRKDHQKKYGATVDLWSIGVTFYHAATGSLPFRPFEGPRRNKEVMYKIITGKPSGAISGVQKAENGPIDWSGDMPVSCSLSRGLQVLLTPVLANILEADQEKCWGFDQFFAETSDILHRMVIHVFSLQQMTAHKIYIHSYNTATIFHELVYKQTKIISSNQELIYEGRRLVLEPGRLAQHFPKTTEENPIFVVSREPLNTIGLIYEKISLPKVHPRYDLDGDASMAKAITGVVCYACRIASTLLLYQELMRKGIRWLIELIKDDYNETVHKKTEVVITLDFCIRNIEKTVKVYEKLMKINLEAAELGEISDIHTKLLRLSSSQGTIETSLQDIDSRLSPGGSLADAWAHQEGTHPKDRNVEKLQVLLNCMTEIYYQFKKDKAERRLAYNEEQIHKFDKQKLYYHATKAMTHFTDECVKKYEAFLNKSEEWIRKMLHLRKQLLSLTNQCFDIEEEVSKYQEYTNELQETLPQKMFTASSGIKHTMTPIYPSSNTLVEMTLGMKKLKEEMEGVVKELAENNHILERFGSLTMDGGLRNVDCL

[5] = target: cAMP-dependent protein kinase (PKA) (Homo sapiens) (UniProt P22694+P17612+P22612); test: Inhibition of PKA (unknown origin) at 50 nM by Z'LYTE screening method relative to control; format: protein assay
[6] = target: Serine/threonine-protein kinase B-raf (Homo sapiens) (UniProt P15056); test: Inhibition of BRaf (unknown origin) at 50 nM by Z'LYTE screening method relative to control
[7] = target: Calcium/calmodulin-dependent protein kinase type 1D (Homo sapiens) (UniProt Q8IU85); test: Inhibition of CAMK1 delta (unknown origin) at 50 nM by Z'LYTE screening method relative to control
[8] = target: Mast/stem cell growth factor receptor Kit (Homo sapiens) (UniProt P10721); test: Inhibition of KIT (unknown origin) at 50 nM by Z'LYTE screening method relative to control
Mast/stem cell growth factor receptor Kit (Homo sapiens), sequence (P10721 whole entry): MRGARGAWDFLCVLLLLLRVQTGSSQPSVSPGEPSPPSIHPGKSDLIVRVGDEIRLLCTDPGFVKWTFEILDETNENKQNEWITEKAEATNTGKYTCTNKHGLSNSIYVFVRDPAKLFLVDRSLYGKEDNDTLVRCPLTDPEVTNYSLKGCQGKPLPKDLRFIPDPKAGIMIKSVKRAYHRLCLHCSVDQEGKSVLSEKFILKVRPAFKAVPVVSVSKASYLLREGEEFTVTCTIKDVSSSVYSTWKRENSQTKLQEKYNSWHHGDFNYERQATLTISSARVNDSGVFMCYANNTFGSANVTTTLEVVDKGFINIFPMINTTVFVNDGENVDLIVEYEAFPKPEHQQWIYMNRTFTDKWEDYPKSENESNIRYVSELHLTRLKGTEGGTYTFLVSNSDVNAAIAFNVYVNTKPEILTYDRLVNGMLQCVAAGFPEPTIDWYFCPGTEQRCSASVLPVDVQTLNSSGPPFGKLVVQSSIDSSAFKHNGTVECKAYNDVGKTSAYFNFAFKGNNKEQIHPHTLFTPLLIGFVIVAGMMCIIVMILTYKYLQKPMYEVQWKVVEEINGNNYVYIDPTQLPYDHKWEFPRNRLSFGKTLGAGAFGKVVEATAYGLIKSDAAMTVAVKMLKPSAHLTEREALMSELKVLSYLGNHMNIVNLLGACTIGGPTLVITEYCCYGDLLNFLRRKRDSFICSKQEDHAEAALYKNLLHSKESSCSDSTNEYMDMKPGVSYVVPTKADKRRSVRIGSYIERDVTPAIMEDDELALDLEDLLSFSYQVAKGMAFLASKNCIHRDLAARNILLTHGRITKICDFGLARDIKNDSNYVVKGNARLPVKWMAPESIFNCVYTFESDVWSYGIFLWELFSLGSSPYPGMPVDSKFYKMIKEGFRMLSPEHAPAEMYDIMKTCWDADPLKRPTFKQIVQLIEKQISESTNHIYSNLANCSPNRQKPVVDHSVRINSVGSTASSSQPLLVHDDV

Serine/threonine-protein kinase B-raf (Homo sapiens), sequence (P15056 whole entry): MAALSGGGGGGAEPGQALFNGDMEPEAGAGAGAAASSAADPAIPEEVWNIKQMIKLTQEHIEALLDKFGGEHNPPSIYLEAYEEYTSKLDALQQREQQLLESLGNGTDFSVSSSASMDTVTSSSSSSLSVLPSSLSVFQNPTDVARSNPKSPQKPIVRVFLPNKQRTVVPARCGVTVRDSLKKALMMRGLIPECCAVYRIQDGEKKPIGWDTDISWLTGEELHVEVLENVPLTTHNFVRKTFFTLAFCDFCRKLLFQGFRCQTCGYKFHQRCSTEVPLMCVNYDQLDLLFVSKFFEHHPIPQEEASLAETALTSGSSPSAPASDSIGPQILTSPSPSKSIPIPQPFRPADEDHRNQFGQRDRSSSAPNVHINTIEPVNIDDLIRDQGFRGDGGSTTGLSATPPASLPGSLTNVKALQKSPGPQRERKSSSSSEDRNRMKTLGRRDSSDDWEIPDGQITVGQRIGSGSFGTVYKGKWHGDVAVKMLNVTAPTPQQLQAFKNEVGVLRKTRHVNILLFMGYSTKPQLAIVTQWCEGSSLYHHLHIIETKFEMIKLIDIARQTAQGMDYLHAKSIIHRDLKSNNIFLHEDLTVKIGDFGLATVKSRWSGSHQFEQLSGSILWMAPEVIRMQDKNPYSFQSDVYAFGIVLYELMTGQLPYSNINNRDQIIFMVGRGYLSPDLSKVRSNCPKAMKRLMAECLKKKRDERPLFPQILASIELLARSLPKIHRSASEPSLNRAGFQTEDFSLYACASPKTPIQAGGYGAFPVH
Calcium/calmodulin-dependent protein kinase type 1D (Homo sapiens), sequence (Q8IU85 whole entry, looked up): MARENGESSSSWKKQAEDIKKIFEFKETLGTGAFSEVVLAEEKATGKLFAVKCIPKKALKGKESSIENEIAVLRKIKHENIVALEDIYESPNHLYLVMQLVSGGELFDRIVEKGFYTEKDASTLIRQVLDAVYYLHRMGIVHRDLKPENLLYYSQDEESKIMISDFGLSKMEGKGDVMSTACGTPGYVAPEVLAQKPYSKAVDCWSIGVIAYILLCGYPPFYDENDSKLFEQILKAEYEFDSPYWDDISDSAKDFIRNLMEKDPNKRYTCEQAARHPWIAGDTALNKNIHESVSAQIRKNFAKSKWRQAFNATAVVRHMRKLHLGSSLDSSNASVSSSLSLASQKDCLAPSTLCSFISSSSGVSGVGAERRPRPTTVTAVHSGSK
Cyclin-dependent kinase 5/CDK5 activator 1 (Homo sapiens), sequence (Q00535 whole entry): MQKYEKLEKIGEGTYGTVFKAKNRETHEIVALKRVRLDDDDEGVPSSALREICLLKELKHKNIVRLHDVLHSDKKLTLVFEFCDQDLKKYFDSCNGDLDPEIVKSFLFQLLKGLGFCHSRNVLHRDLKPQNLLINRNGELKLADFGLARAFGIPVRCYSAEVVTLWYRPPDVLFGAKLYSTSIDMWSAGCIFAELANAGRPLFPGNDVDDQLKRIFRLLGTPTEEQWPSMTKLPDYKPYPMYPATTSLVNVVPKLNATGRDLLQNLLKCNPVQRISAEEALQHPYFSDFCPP
Cyclin-dependent kinase 5/CDK5 activator 1 (Homo sapiens), sequence (Q15078 99-307 partner limits assumed): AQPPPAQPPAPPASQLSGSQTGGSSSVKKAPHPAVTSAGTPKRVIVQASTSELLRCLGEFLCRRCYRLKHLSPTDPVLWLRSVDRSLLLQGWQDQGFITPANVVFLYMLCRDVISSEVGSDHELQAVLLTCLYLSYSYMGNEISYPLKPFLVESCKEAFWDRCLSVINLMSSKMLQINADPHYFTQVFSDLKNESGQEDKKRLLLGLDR

Row | inhibition [1] [%] | inhibition [2] [%] | inhibition [3] [%] | inhibition [4] [%] | inhibition [5] [%] | inhibition [6] [%] | inhibition [7] [%] | inhibition [8] [%] | Structure (SMILES)
1 | 0 | 6 | 0 | 0 | 12 | 7 | 0 | 1 | O=C1c2ccccc2CN1c1nc(NC2CCCCC2)c2nc[nH]c2n1
2 | 0 | 6 | 4 | 0 | 22 | 10 | 1 | 1 | O=c1c2ccccc2[se]n1-c1nc(NC2CCCCC2)c2nc[nH]c2n1

Row | Structure (SMILES) | inhibition [1] [%] | inhibition [2] [%] | inhibition [3] [%] | inhibition [4] [%] | inhibition [5] [%] | inhibition [6] [%] | inhibition [7] [%] | inhibition [8] [%]
3 | O=c1c2ccccc2[se]n1-c1nc(N[C@H]2CC[Se]C2)c2nc[nH]c2n1 | 4 | 9 | 8 | 0 | 53 | 0 | 5 | 2

Source: ChEMBL document CHEMBL5154740, “Novel Aurora A and Protein Kinase C (α, β1, β2, and θ) Multitarget Inhibitors: Impact of Selenium Atoms on the Potency and Selectivity” (J Med Chem, 2022)
